{"source": "paper PMC5432571", "about": "(Frontiers in Molecular Neuroscience, 2017)", "key": {"α2 GlyR": {"biological_target": "T1, α2 GlyR (Homo sapiens, UniProt P23416)", "T1 construct": "expressed in transfected cells; host or cells: CHO cells", "T1 sequence (P23416 28-452 isoform P23416-2 limits assumed)": "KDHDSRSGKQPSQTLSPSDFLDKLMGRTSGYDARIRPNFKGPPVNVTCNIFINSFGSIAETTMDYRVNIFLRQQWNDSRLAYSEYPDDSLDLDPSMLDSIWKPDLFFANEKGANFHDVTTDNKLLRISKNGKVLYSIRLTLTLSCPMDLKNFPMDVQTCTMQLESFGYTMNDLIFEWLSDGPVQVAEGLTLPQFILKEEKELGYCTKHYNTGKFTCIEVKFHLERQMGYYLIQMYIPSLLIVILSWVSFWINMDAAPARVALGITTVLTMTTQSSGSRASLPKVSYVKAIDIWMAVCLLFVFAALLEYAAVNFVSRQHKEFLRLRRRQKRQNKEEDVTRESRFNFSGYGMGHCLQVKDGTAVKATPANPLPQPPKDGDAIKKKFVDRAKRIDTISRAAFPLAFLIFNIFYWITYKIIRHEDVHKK", "experiment": "Whole-cell patch-clamp of glycine-induced currents, α2 GlyR expressed in CHO cells", "type": "cell-based", "conditions": "for glycine-evoked current, % from the control: NFA 10 μM", "method": "(§1) The experiments were carried out on cultured Chinese hamster ovary (CHO) cells obtained from the American Type Tissue Culture Collection (ATCC, Molsheim, France) that were maintained in culture conditions as previously described (Mukhtarov et al., [2013]; Maleeva et al., [2015]).\n(§2) One day before transfection, cells were plated on the cover slips (12 mm in diameter) and placed inside 35-mm cell culture dishes with 2 ml of medium. Transfection was performed using the Lipofectamine 3000 protocol (Life Technology, USA). To facilitate identification of transfected cells a green fluorescent protein (GFP) was added to the transfection mixture. For expression of functional heteromeric receptors, cells were simultaneously transfected with cDNAs of α and β subunits in the ratio 1:10. Three hours after the initial exposure of cells to the cDNAs the culture medium was replaced with that containing strychnine (1 μM), which prevents spontaneous activation of GlyRs. Electrophysiological recordings were performed in the fluorescent cells 24–72 h after transfection.\n(§3) Whole-cell and outside-out recordings were performed at room temperature (20–25°C) using an EPC-9 amplifier (HEKA Elektronik, Germany). Cells were continuously superfused with external solution containing (mM): NaCl 140, CaCl2 2, KCl 2.8, MgCl2 4, HEPES 20, glucose 10; pH 7.4; 320–330 mOsm. Intracellular solution used for filling recording patch pipettes contained (mM): CsCl 140, CaCl2 6, MgCl2 2, MgATP 2, NaGTP 0.4, HEPES/CsOH 10, BAPTA (tetrapotassium salt) 2; pH 7.3; 290 mOsm. Two different protocols of solutions application were used in this study. […] A “ramp protocol” implies the gradual change of Vhold alternately from −80 to +80 mV and from +80 to −80 mV during 1 s, Vhold was fixed at −80 or +80 mV at the beginning and at the end of the ramp for 500 ms (Figure 2B).\n(§4) Recording pipettes were pulled from borosilicate glass capillaries (Harvard Apparatus Ltd, USA) and had resistances of 5–10 MOhm. For the rapid replacement of the solutions, the fast application system was used. Three parallel rectangular tubes (100 × 100 μm) were positioned 40–50 μm above the recorded cell. The movement of the tubes was controlled by a computer-driven fast exchange system (SF 77A Perfusion Fast-Step, Warner, USA) allowing a 10–90% solution exchange in 3–5 ms, as measured by open electrode controls (1/10 external solution/water). Cells with low input resistance (<150 MOhm) and a rapid run-down (>30% with repetitive application) were excluded from analysis.\n(§5) Electrophysiological recordings were performed using PatchMaster (HEKA Electronic, Germany) software.\nThe fractional electrical distance from the external side of the membrane (δ) at which bound NFA blocked the current was calculated using the Woodhull equation: IC50(V)=IC50(0) exp (−δFV/RT), where IC50(V) is IC50 at the given membrane potential, IC50(0) – at 0 mV, V – membrane potential and F, R, T have their usual meanings. δ was determined from a plot of IC50 values against membrane potential."}, "α1β GlyR": {"biological_target": "T2, α1β GlyR (Homo sapiens, UniProt P23415+P48167)", "T2 construct": "expressed in transfected cells; host or cells: CHO cells", "T2 sequence (P23415 29-449 isoform P23415-2 limits assumed)": "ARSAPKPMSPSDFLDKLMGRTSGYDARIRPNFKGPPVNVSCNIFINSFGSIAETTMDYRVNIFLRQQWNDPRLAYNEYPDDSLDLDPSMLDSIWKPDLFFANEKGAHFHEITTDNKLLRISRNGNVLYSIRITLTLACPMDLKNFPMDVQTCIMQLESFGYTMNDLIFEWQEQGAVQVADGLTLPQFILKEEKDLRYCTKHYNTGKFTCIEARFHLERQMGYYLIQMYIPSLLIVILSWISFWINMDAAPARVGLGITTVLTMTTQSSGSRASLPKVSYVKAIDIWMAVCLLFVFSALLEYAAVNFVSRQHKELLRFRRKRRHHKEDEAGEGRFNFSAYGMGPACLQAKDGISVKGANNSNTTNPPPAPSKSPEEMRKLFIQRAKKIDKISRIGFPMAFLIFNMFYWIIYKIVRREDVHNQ", "T2 sequence (P48167 23-497)": "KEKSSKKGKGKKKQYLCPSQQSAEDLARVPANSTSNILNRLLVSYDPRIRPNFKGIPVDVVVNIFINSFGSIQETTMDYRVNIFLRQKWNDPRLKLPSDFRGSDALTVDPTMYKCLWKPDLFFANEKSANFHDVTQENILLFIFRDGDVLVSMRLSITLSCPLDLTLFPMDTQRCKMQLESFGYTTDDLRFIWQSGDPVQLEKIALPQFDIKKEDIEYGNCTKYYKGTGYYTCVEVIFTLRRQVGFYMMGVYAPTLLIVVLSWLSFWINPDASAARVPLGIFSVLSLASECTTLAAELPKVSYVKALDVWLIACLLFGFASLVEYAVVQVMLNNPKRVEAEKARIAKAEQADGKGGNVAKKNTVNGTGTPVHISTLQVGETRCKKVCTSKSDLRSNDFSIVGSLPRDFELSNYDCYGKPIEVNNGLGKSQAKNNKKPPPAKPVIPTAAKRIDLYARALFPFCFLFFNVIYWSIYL", "experiment": "Whole-cell patch-clamp of glycine-induced currents, heteromeric α1β GlyR expressed in CHO cells", "type": "cell-based", "conditions": "glycine 30 μM", "method": "as §1, §2, §3, §4, §5"}}, "note": "Read-outs that look alike come from different tables or passages of the source."}
{"smiles": "O=C(O)c1cccnc1Nc1cccc(C(F)(F)F)c1", "note": "[NFA, Niflumic acid]", "values": [{"measurement": "IC50", "setting": "α2 GlyR; +30 mV, glycine 30 μM, representative, read-out: NFA IC50 (representative IC50 curve)", "result": 17, "unit": "µM"}, {"measurement": "IC50", "setting": "α2 GlyR; +30 mV, glycine 100 μM, representative, read-out: NFA IC50 (representative IC50 curve)", "result": 12, "unit": "µM"}, {"measurement": "IC50", "setting": "α2 GlyR; +80 mV, glycine 30 μM, ramp protocol, mean ± SEM, read-out: IC50 of NFA", "result": "9 ± 2", "unit": "µM"}, {"measurement": "IC50", "setting": "α2 GlyR; +80 mV, glycine 30 μM, representative, read-out: NFA IC50 (representative IC50 curve)", "result": 12, "unit": "µM"}, {"measurement": "IC50", "setting": "α2 GlyR; +80 mV, glycine 100 μM, ramp protocol, mean ± SEM, read-out: IC50 of NFA", "result": "9 ± 2", "unit": "µM"}, {"measurement": "IC50", "setting": "α2 GlyR; +80 mV, glycine 100 μM, representative, read-out: NFA IC50 (representative IC50 curve)", "result": 7, "unit": "µM"}, {"measurement": "inhibition at 10 µM", "setting": "α2 GlyR; CHO", "result": "~50", "unit": "%"}, {"measurement": "glycine-evoked current, % from the control", "setting": "α2 GlyR; MP +80 mV", "result": "43 ± 5", "unit": "%"}, {"measurement": "glycine-evoked current, % from the control", "setting": "α2 GlyR; MP −80 mV", "result": "89 ± 4", "unit": "%"}, {"measurement": "Hill coefficient (nH) of NFA interaction", "setting": "α2 GlyR; membrane potential 30 mV, glycine 30 μM", "result": "1.1 ± 0.14"}, {"measurement": "Hill coefficient (nH) of NFA interaction", "setting": "α2 GlyR; membrane potential 50 mV, glycine 30 μM", "result": "1 ± 0.14"}, {"measurement": "Hill coefficient (nH) of NFA interaction", "setting": "α2 GlyR; membrane potential 70 mV, glycine 30 μM", "result": "1 ± 0.13"}, {"measurement": "Hill coefficient (nH) of NFA interaction", "setting": "α2 GlyR; membrane potential 80 mV, glycine 30 μM", "result": "0.97 ± 0.09"}, {"measurement": "Hill coefficient (nH) of NFA interaction", "setting": "α2 GlyR; membrane potential −50 mV, glycine 30 μM", "result": "1.14 ± 0.12"}, {"measurement": "Hill coefficient (nH) of NFA interaction", "setting": "α2 GlyR; membrane potential −70 mV, glycine 30 μM", "result": "1.04 ± 0.08"}, {"measurement": "Hill coefficient (nH) of NFA interaction", "setting": "α2 GlyR; membrane potential −80 mV, glycine 30 μM", "result": "1.05 ± 0.06"}, {"measurement": "Hill coefficient (nH) of NFA inhibitory action", "setting": "α2 GlyR; overall statement in discussion", "result": "~1"}, {"measurement": "IC50", "setting": "α2 GlyR; read-out: IC50 of NFA", "result": "133 ± 20", "unit": "µM"}, {"measurement": "IC50", "setting": "α2 GlyR; −30 mV, glycine 30 μM, representative, read-out: NFA IC50 (representative IC50 curve)", "result": 75, "unit": "µM"}, {"measurement": "IC50", "setting": "α2 GlyR; −30 mV, glycine 100 μM, representative, read-out: NFA IC50 (representative IC50 curve)", "result": 39, "unit": "µM"}, {"measurement": "IC50", "setting": "α2 GlyR; −80 mV, glycine 30 μM, ramp protocol, mean ± SEM, read-out: IC50 of NFA", "result": "166 ± 28", "unit": "µM"}, {"measurement": "IC50", "setting": "α2 GlyR; −80 mV, glycine 30 μM, representative, read-out: NFA IC50 (representative IC50 curve)", "result": 155, "unit": "µM"}, {"measurement": "IC50", "setting": "α2 GlyR; −80 mV, glycine 100 μM, representative, read-out: NFA IC50 (representative IC50 curve)", "result": 100, "unit": "µM"}, {"measurement": "IC50", "setting": "α1β GlyR; +30 mV, representative, read-out: NFA IC50 (representative IC50 curve)", "result": 152, "unit": "µM"}, {"measurement": "IC50", "setting": "α1β GlyR; +80 mV, mean ± SEM, read-out: IC50 of NFA", "result": "150 ± 14", "unit": "µM"}, {"measurement": "IC50", "setting": "α1β GlyR; +80 mV, representative, read-out: NFA IC50 (representative IC50 curve)", "result": 144, "unit": "µM"}, {"measurement": "IC50", "setting": "α1β GlyR; −30 mV, representative, read-out: NFA IC50 (representative IC50 curve)", "result": 200, "unit": "µM"}, {"measurement": "IC50", "setting": "α1β GlyR; −80 mV, representative, read-out: NFA IC50 (representative IC50 curve)", "result": 191, "unit": "µM"}]}
